Patent US20130172345A1, “1-ACYL-4-(PHENOXY, BENZYLOXY, OR PHENYLAMINO)-1,2,3,4-TETRAHYDROQUINOLINE DERIVATIVES” (KOWA COMPANY, LTD., priority 2007, published 2013)
Structures can show the parent of a compound that is named as a salt.

Columns and labels:
[1] = system: K562 cells, human proerythroblast cells; assay: Hemoglobin production in K562 cells (fluorescence of the porphyrin ring); assay type: cell-based; conditions: 144 h, test compound 6 μM, 3+3 days, non-stimulated state = 100%, read-out: production amount of hemoglobin, % of control (6 μM)
Summary of the method: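 K562 cells at 1×10^5 cells/mL in RPMI-1640 with 10% FBS, exposed to compound 3 days, medium exchanged, then 3 more days at 37 °C, 5% CO2. Hemoglobin from 3×10^5 cells measured as porphyrin fluorescence after boiling 30 min in 2 M oxalic acid; expressed as % of untreated control.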

[2] = system: HepG2 cells originating from human liver cancer; assay: EPO production in HepG2 cells (EPO ELISA of culture supernatant, 4% oxygen, 48 hrs); assay type: cell-based; conditions: test compound 3 μM, oxygen 4%, non-stimulated state = 100%, read-out: EPO production amount, % of control (3 μM)
Experimental: HepG2 cells originating from human liver cancer were seeded at a density of 1×10^4 cells per well on a 24-well plate by using minimum essential medium (MEM, manufactured by Sigma) comprising 10% bovine fetal serum. Next day, the medium was exchanged with Dulbecco's modified eagle medium (DMEM, manufactured by Sigma) comprising 10% bovine fetal serum lacking phenol red. Then, the test compound dissolved in DMSO was added thereto to obtain the final concentration of 3 μM or 10 μM while having 400 μl of the medium per well. The cells were incubated for 48 hrs in a CO2 incubator which had been adjusted to have oxygen concentration of 4%, followed by collecting the culture supernatant. The EPO concentration in the culture supernatant was immediately measured by using EPO ELISA kit (manufactured by Roche Diagnostics K.K.). Specific procedures were carried out according to the manufacturer's protocol included in the kit.
When EPO production amount in non-stimulated state, i.e., without addition of any compound, was 100%, the EPO production amount induced by each compound was calculated (% of control).

SMILES | activity at 6 µM [1] [%] | activity at 3 µM [2] [%]
CC(=O)N1c2ccc(N3CCOCC3)cc2C(Nc2ccc(Cl)cc2)CC1C (stereo not shown) [Compound 40, 1-acetyl-4-[(4-chlorophenyl)amino]-2-methyl-6-morpholino-1,2,3,4-tetrahydroquinoline.hydrochloride] | 256 | 144
CC(=O)N1c2ccccc2C(Nc2ccc(N3CCNCC3)cc2)CC1C (stereo not shown) [Compound 76, 1-acetyl-2-methyl-4-[(4-piperazinylphenyl)amino]-1,2,3,4-tetrahydroquinoline] | 185 | 227
CC(=O)N1c2ccccc2[C@H](Oc2ccccc2F)C[C@@H]1C (relative stereo) [Compound 29, cis-1-acetyl-4-(2-fluorophenoxy)-2-methyl-1,2,3,4-tetrahydroquinoline] | 201 | 305
CC(=O)N1c2ccc(F)cc2[C@H](Oc2ccc(F)cc2)C[C@@H]1C (relative stereo) [Compound 34, cis-1-acetyl-4-(4-fluorophenoxy)-6-fluoro-2-methyl-1,2,3,4-tetrahydroquinoline] | 257 | 288
CC(=O)N1c2ccc(C(=O)O)cc2C(Nc2ccc(Cl)cc2)CC1C (stereo not shown) [Compound 42, 1-acetyl-4-[(4-chlorophenyl)amino]-2-methyl-1,2,3,4-tetrahydroquinoline-6-carboxylic acid] | 303 | 102
CC(=O)N1c2ccccc2[C@H](Oc2cc(F)cc(F)c2)C[C@@H]1C (relative stereo) [Compound 62, cis-1-acetyl-4-(3,5-difluorophenoxy)-2-methyl-1,2,3,4-tetrahydroquinoline] | 168 | 193
CC(=O)N1CCN(c2ccc(N[C@@H]3C[C@H](C)N(C(C)=O)c4ccccc43)cc2)CC1 (relative stereo) [Compound 77, cis-1-acetyl-4-{[4-(4-acetylpiperazinyl)phenyl]amino}-2-methyl-1,2,3,4-tetrahydroquinoline] | 120 | 221
CC(=O)N1c2cc(NS(C)(=O)=O)ccc2C(Nc2ccc(Cl)cc2)CC1C (stereo not shown) [Compound 107, 1-acetyl-4-[(4-chlorophenyl)amino]-7-methanesulfonylamino-2-methyl-1,2,3,4-tetrahydroquinoline.hydrochloride] | 139 | 130
CC(=O)N1c2ccc(C(N)=O)cc2C(Nc2ccc(N3CCOCC3)cc2)CC1C (stereo not shown) [Compound 92, 1-acetyl-2-methyl-4-[(4-morpholinophenyl)amino]-1,2,3,4-tetrahydroquinoline-6-carboxamide] | 128 | 192
CC(=O)N1c2cc(F)ccc2[C@H](Oc2ccc(F)cc2)C[C@@H]1C (relative stereo) [Compound 56, cis-1-acetyl-7-fluoro-4-(4-fluorophenoxy)-2-methyl-1,2,3,4-tetrahydroquinoline] | 119 | 213
COc1cccc(NC2CC(C)N(C(C)=O)c3ccccc32)c1 (stereo not shown) [Compound 11, 1-acetyl-4-[(3-methoxyphenyl)amino]-2-methyl-1,2,3,4-tetrahydroquinoline] | 361 | 163
CC(=O)N1c2ccccc2[C@H](Oc2ccccc2)C[C@@H]1C (relative stereo) [Compound 26, cis-1-acetyl-2-methyl-4-phenoxy-1,2,3,4-tetrahydroquinoline] | 188 | 214
CC(=O)N1c2ccccc2C(Nc2ccc(Oc3ccccc3)cc2)CC1C (stereo not shown) [Compound 17, 1-acetyl-4-[(4-phenoxyphenyl)amino]-2-methyl-1,2,3,4-tetrahydroquinoline] | 517 | 172
CC(=O)N1c2ccc(F)cc2C(Nc2ccc(CC(N)=O)cc2)CC1C (stereo not shown) [Compound 124, 1-acetyl-4-[(4-carbamoylmethylphenyl)amino]-6-fluoro-2-methyl-1,2,3,4-tetrahydroquinoline] | 119 | 147
CC1CC(Nc2ccccc2)c2ccccc2N1C(=O)C1CC1 (stereo not shown) [Compound 47, 1-cyclopropanecarbonyl-2-methyl-4-phenylamino-1,2,3,4-tetrahydroquinoline] | 701 | 292
CC(=O)N1c2ccccc2[C@H](Nc2ccc(N3CCN(S(C)(=O)=O)CC3)cc2)C[C@@H]1C (relative stereo) [Compound 78, cis-1-acetyl-4-{[4-(4-methanesulfonylpiperazinyl)phenyl]amino}-2-methyl-1,2,3,4-tetrahydroquinoline] | 210 | 217

SMILES | activity at 6 µM [1] [%] | activity at 3 µM [2] [%]
CC(=O)N1c2ccccc2C(Nc2ccc(Cl)cc2)CC1C (stereo not shown) [Compound 8, 1-acetyl-4-[(4-chlorophenyl)amino]-2-methyl-1,2,3,4-tetrahydroquinoline] | 412 | 248
CNC(=O)N1c2ccc(F)cc2C(Nc2ccc(F)cc2)CC1C (stereo not shown) [Compound 65, 6-fluoro-4-[(4-fluorophenyl)amino]-2-methyl-1-N-methylcarbamoyl-1,2,3,4-tetrahydroquinoline] | 461 | 414
CC(=O)N1c2cc(Br)ccc2[C@H](Nc2ccccc2)C[C@@H]1C (relative stereo) [Compound 23, cis-1-acetyl-7-bromo-2-methyl-4-phenylamino-1,2,3,4-tetrahydroquinoline] | 544 | 135
CC(=O)N1c2ccccc2C(Nc2ccc(CC(=O)O)cc2)CC1C (stereo not shown) [Compound 71, 1-acetyl-4-[(4-carboxymethylphenyl)amino]-2-methyl-1,2,3,4-tetrahydroquinoline] | 150 | 149
CC(=O)N1c2ccccc2[C@H](Oc2cccc(F)c2)C[C@@H]1C (relative stereo) [Compound 28, cis-1-acetyl-4-(3-fluorophenoxy)-2-methyl-1,2,3,4-tetrahydroquinoline] | 216 | 167
CC(=O)N1c2ccccc2C(Nc2ccc(CC(N)=O)cc2)CC1C (stereo not shown) [Compound 75, 1-acetyl-4-[(4-carbamoylmethylphenyl)amino]-2-methyl-1,2,3,4-tetrahydroquinoline] | 282 | 346
CC(=O)N1c2ccc(Br)cc2C(Nc2ccccc2)CC1C (stereo not shown) [Compound 13, 1-acetyl-6-bromo-2-methyl-4-phenylamino-1,2,3,4-tetrahydroquinoline] | 365 | 229
CC(=O)N1c2ccc(-c3nnn[nH]3)cc2C(Nc2ccc(Cl)cc2)CC1C (stereo not shown) [Compound 119, 1-acetyl-4-[(4-chlorophenyl)amino]-2-methyl-6-(1H-tetrazol-5-yl)-1,2,3,4-tetrahydroquinoline] | 124 | 125
CC(=O)N1c2ccccc2C(Nc2ccc(CO)cc2)CC1C (stereo not shown) [Compound 38, 1-acetyl-4-[(4-hydroxymethylphenyl)amino]-2-methyl-1,2,3,4-tetrahydroquinoline] | 190 | 201
CC(=O)N1c2ccc(CO)cc2[C@H](Nc2ccc(Cl)cc2)C[C@@H]1C (relative stereo) [Compound 121, cis-1-acetyl-4-[(4-chlorophenyl)amino]-6-hydroxymethyl-2-methyl-1,2,3,4-tetrahydroquinoline] | 149 | 222
CC(=O)N1c2ccccc2C(Nc2ccc(F)cc2)CC1C (stereo not shown) [Compound 15, 1-acetyl-4-[(4-fluorophenyl)amino]-2-methyl-1,2,3,4-tetrahydroquinoline] | 409 | 348
CCOC(=O)Nc1ccc2c(c1)C(Nc1ccc(Cl)cc1)CC(C)N2C(C)=O (stereo not shown) [Compound 97, 1-acetyl-4-[(4-chlorophenyl)amino]-2-methyl-1,2,3,4-tetrahydroquinoline-6-ethylcarbamate] | 553 | 264
CC(=O)N1c2ccccc2C(Nc2ccc(N(C)C)cc2)CC1C (stereo not shown) [Compound 20, 1-acetyl-4-[(4-N,N-dimethylaminophenyl)amino]-2-methyl-1,2,3,4-tetrahydroquinoline.2 hydrochloride] | 117 | 174
CC(=O)N1c2ccccc2C(N(C)c2ccccc2)CC1C (stereo not shown) [Compound 46, 1-acetyl-4-(N-methyl-N-phenylamino)-2-methyl-1,2,3,4-tetrahydroquinoline] | 326 | 391
CC(=O)N1c2ccccc2C(Nc2ccc(NS(C)(=O)=O)cc2)CC1C (stereo not shown) [Compound 39, 1-acetyl-4-[(4-methanesulfonylamidephenyl)amino]-2-methyl-1,2,3,4-tetrahydroquinoline] | 327 | 131
CNC(=O)c1ccc2c(c1)C(Nc1ccc(Cl)cc1)CC(C)N2C(C)=O (stereo not shown) [Compound 114, 1-acetyl-4-[(4-chlorophenyl)amino]-N,2-dimethyl-1,2,3,4-tetrahydroquinoline-6-carboxamide] | 152 | 198
